According to patent US10519154B2, “7-substituted 1-pyridyl-naphthyridine-3-carboxylic acid amides and use thereof” (Bayer Pharma Aktiengesellschaft, priority 2016, dated 2019):

Biological target: T1, human M2 receptor (Homo sapiens, UniProt P08172)
T1 sequence (P08172 1-466): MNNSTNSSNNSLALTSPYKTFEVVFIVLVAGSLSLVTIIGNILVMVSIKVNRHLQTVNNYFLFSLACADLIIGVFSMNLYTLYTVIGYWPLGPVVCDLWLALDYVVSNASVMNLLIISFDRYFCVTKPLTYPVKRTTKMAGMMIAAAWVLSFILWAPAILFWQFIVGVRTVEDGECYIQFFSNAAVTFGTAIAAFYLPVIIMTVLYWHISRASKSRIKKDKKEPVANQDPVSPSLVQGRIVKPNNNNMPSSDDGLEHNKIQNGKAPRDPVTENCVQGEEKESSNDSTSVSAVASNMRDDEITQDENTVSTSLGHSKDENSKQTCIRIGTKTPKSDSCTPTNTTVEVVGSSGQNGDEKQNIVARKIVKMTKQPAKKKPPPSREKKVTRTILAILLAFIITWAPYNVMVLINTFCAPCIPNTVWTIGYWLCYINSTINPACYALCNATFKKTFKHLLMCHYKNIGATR
Assay: Functional M2-GIRK1/4 activation test: allosteric potency (EC50) and efficiency
Details: for EC50: Receptor activity EC50, CHO-DUKX-M2-GIRK cells, acetylcholine at EC20, in some cases mean of two or more determinations; for Emax: read-out: Efficiency, boosting of the acetylcholine effect at EC20 acetylcholine concentration; for Emax / Efficiency: CHO-DUKX-M2-GIRK cells; for Efficiency: boosting of the acetylcholine effect at EC20 acetylcholine concentration

| SMILES | EC50 | Emax | Efficiency |
| --- | --- | --- | --- |
| CCC(NC(=O)c1cn(-c2ncc(F)cc2F)c2nc(N3C[C@@H](O)CC3=O)ccc2c1=O)C(F)(F)C(F)(F)F (mixture of isomers) [Example 92, 1-(3,5-Difluoropyridin-2-yl)-7-[(4S)-4-hydroxy-2-oxopyrrolidin-1-yl]-4-oxo-N-[1,1,1,2,2-pentafluoropentan-3-yl]-1,4-dihydro-1,8-naphthyridine-3-carboxamide] | 17 nM | 100% |  |
| O=C(N[C@H](C1CC1)C(F)(F)F)c1cn(-c2ncc(F)cc2F)c2nc(N3CC4CC4(O)C3)ccc2c1=O (single isomer, unassigned) [Example 39] | 51 nM |  | 99.00% |
| O=C(N[C@H](C1CC1)C(F)(F)F)c1cn(-c2ncc(F)cc2Cl)c2nc(N3C[C@@H](O)[C@H](O)C3)ccc2c1=O [Example 51, 1-(3-Chloro-5-fluoropyridin-2-yl)-N-[(1R)-1-cyclopropyl-2,2,2-trifluoroethyl]-7-[(3R,4R)-3,4-dihydroxypyrrolidin-1-yl]-4-oxo-1,4-dihydro-1,8-naphthyridine-3-carboxamide] | 527 nM | 84.3% |  |
| CC[C@@H](NC(=O)c1cn(-c2ncccc2Cl)c2nc(N3CC4CC4(O)C3)ccc2c1=O)C(F)(F)F (mixture of isomers) [Example 47, 1-(3-Chloropyridin-2-yl)-7-[1-hydroxy-3-azabicyclo[3.1.0]hex-3-yl]-4-oxo-N-[(2R)-1,1,1-trifluorobutan-2-yl]-1,4-dihydro-1,8-naphthyridine-3-carboxamide] | 640 nM | 89% |  |
| C[C@@H]1CN(c2ccc3c(=O)c(C(=O)N[C@@H](C4CC4)C(F)(F)F)cn(-c4ncc(F)cc4F)c3n2)C(=O)N1 [Example 142, N-[(1S)-1-cyclopropyl-2,2,2-trifluoroethyl]-1-(3,5-difluoropyridin-2-yl)-7-[(4R)-4-methyl-2-oxoimidazolidin-1-yl]-4-oxo-1,4-dihydro-1,8-naphthyridine-3-carboxamide] | 47 nM | 94.5% |  |
| CC(NC(=O)c1cn(-c2ncc(F)cc2F)c2nc(N3CCNC3=O)ccc2c1=O)C(F)(F)C(F)(F)F (racemic) [Example 161, 1-(3,5-Difluoropyridin-2-yl)-4-oxo-7-(2-oxoimidazolidin-1-yl)-N-[3,3,4,4,4-pentafluorobutan-2-yl]-1,4-dihydro-1,8-naphthyridine-3-carboxamide] | 70 nM | 100% |  |
| CC(NC(=O)c1cn(-c2ncc(F)cc2F)c2nc(N3C[C@@H](O)[C@H](O)C3)ccc2c1=O)(C(F)(F)F)C(F)(F)F [Example 152, 1-(3,5-Difluoropyridin-2-yl)-7-[(3R,4R)-3,4-dihydroxypyrrolidin-1-yl]-N-(1,1,1,3,3,3-hexafluoro-2-methylpropan-2-yl)-4-oxo-1,4-dihydro-1,8-naphthyridine-3-carboxamide] | 103 nM | 99.5% |  |
| CC1C(O)C2(CC2)C(=O)N1c1ccc2c(=O)c(C(=O)N[C@H](C3CC3)C(F)(F)F)cn(-c3ncc(F)cc3F)c2n1 (stereo partly drawn) [Example 114, N-[(1R)-1-Cyclopropyl-2,2,2-trifluoroethyl]-1-(3,5-difluoropyridin-2-yl)-7-[7-hydroxy-6-methyl-4-oxo-5-azaspiro[2.4]hept-5-yl]-4-oxo-1,4-dihydro-1,8-naphthyridine-3-carboxamide] | 111 nM | 96.5% |  |
| CC(C)(C)[C@H](NC(=O)c1cn(-c2ncc(F)cc2F)c2nc(N3CCN(CCO)C3=O)ccc2c1=O)C(F)(F)F [Example 124, 1-(3,5-Difluoropyridin-2-yl)-7-[3-(2-hydroxyethyl)-2-oxoimidazolidin-1-yl]-4-oxo-N-[(2S)-1,1,1-trifluoro-3,3-dimethylbutan-2-yl]-1,4-dihydro-1,8-naphthyridine-3-carboxamide] | 130 nM | 97% |  |
| O=C(NC(C(F)(F)F)C(F)(F)F)c1cn(-c2ncc(F)cc2F)c2nc(N3CCC(O)(CO)CC3)ccc2c1=O [Example 179] | 95 nM | 100% |  |
| CC1C(=O)N(c2ccc3c(=O)c(C(=O)N[C@@H](C4CC4)C(F)(F)F)cn(-c4ncc(F)cc4F)c3n2)CC1O (single isomer, unassigned) [Example 106] | 165 nM |  | 91.50% |
| CC[C@@H](NC(=O)c1cn(-c2ncc(F)cc2F)c2nc(N3CC4CC4(O)C3)ccc2c1=O)C(F)(F)F (single isomer, unassigned) [Example 44] | 31 nM | 98.5% |  |
| CC[C@H](NC(=O)c1cn(-c2ncc(F)cc2F)c2nc(N3CC(O)C(C)C3=O)ccc2c1=O)C(F)(F)F (single isomer, unassigned) [Example 111] | 100 nM |  | 99.00% |
| CC(C)(NC(=O)c1cn(-c2ncc(F)cc2F)c2nc(N3CCC[C@@H]3CO)ccc2c1=O)C(F)(F)C(F)(F)F [Example 188, 1-(3,5-Difluoropyridin-2-yl)-7-[(2R)-2-(hydroxymethyl)pyrrolidin-1-yl]-4-oxo-N-(3,3,4,4,4-pentafluoro-2-methylbutan-2-yl)-1,4-dihydro-1,8-naphthyridine-3-carboxamide] | 118 nM | 100% |  |
| O=C(NC(C1CC1)C(F)(F)F)c1cn(-c2ncc(F)cc2F)c2nc(N3CC4CC4(O)C3)ccc2c1=O (stereo not shown) [Example 36, N-[1-Cyclopropyl-2,2,2-trifluoroethyl]-1-(3,5-difluoropyridin-2-yl)-7-[1-hydroxy-3-azabicyclo[3.1.0]hex-3-yl]-4-oxo-1,4-dihydro-1,8-naphthyridine-3-carboxamide] | 22 nM | 100% |  |
| CC1(C)C(=O)N(c2ccc3c(=O)c(C(=O)N[C@@H](C4CC4)C(F)(F)F)cn(-c4ncc(F)cc4F)c3n2)C2(CC2)C1O (stereo partly drawn) [Example 33, N-[(1S)-1-Cyclopropyl-2,2,2-trifluoroethyl]-1-(3,5-difluoropyridin-2-yl)-7-[7-hydroxy-6,6-dimethyl-5-oxo-4-azaspiro[2.4]hept-4-yl]-4-oxo-1,4-dihydro-1,8-naphthyridine-3-carboxamide] | 505 nM | 83% |  |
| CC(C)(CC(F)(F)F)NC(=O)c1cn(-c2ncc(F)cc2F)c2nc(N3C[C@@H](O)[C@H](O)C3)ccc2c1=O [Example 91, 1-(3,5-Difluoropyridin-2-yl)-7-[(3R,4R)-3,4-dihydroxypyrrolidin-1-yl]-4-oxo-N-(4,4,4-trifluoro-2-methylbutan-2-yl)-1,4-dihydro-1,8-naphthyridine-3-carboxamide] | 280 nM | 99% |  |
| CC[C@@H](NC(=O)c1cn(-c2ncccc2F)c2nc(N3CC4CC4(O)C3)ccc2c1=O)C(F)(F)F (mixture of isomers) [Example 134, 1-(3-Fluoropyridin-2-yl)-7-[1-hydroxy-3-azabicyclo[3.1.0]hex-3-yl]-4-oxo-N-[(2R)-1,1,1-trifluorobutan-2-yl]-1,4-dihydro-1,8-naphthyridine-3-carboxamide] | 105 nM | 100% |  |
| O=C(NC(C(F)(F)F)C(F)(F)F)c1cn(-c2ncc(F)cc2F)c2nc(N3CCC[C@@H]3CO)ccc2c1=O [Example 180, 1-(3,5-Difluoropyridin-2-yl)-N-(1,1,1,3,3,3-hexafluoropropan-2-yl)-7-[(2R)-2-(hydroxymethyl)pyrrolidin-1-yl]-4-oxo-1,4-dihydro-1,8-naphthyridine-3-carboxamide] | 89 nM | 100% |  |
| CC[C@@H](NC(=O)c1cn(-c2ncc(F)cc2F)c2nc(N3CC4CC4(O)C3)ccc2c1=O)C(F)(F)F (mixture of isomers) [Example 43, 1-(3,5-Difluoropyridin-2-yl)-7-[1-hydroxy-3-azabicyclo[3.1.0]hex-3-yl]-4-oxo-N-[(2R)-1,1,1-trifluorobutan-2-yl]-1,4-dihydro-1,8-naphthyridine-3-carboxamide] | 65 nM | 100% |  |
| O=C(NC(c1ccccc1Cl)C(F)(F)F)c1cn(-c2ncc(F)cc2F)c2nc(N3CCNC3=O)ccc2c1=O (single isomer, unassigned) [Example 149, N-[1-(2-Chlorophenyl)-2,2,2-trifluoroethyl]-1-(3,5-difluoropyridin-2-yl)-4-oxo-7-(2-oxoimidazolidin-1-yl)-1,4-dihydro-1,8-naphthyridine-3-carboxamide] | 32 nM |  | 100.00% |
| CC1(O)CCN(c2ccc3c(=O)c(C(=O)N[C@H](C4CC4)C(F)(F)F)cn(-c4ncc(F)cc4Cl)c3n2)C1 (mixture of isomers) [Example 53, 1-(3-Chloro-5-fluoropyridin-2-yl)-N-[(1R)-1-cyclopropyl-2,2,2-trifluoroethyl]-7-[3-hydroxy-3-methylpyrrolidin-1-yl]-4-oxo-1,4-dihydro-1,8-naphthyridine-3-carboxamide] | 555 nM | 96.5% |  |
| C[C@H](NC(=O)c1cn(-c2ncc(F)cc2F)c2nc(N3C[C@@H](O)CC3=O)ccc2c1=O)C(F)(F)F [Example 3, 1-(3,5-Difluoropyridin-2-yl)-7-[(4S)-4-hydroxy-2-oxopyrrolidin-1-yl]-4-oxo-N-[(2S)-1,1,1-trifluoropropan-2-yl]-1,4-dihydro-1,8-naphthyridine-3-carboxamide] | 240 nM | 97.8% |  |
